In US11866430B2, “Naphthyridinone compounds useful as T cell activators” (priority 2018, dated 2024):
Where two headings read alike, the source gives them in different places.

Key:
[1] = target: human DGKζ (Homo sapiens (Human), UniProt Q13574); assay: DGKζ assay (detergent/lipid micelle substrate); format: biochemical; settings: detergent/lipid micelle substrate; read-out: DGKζ IC50
Method: (§1) The DGKα and DGKζ reactions were performed using either extruded liposome (DGKα and DGKζ LIPGLO assays) or detergent/lipid micelle substrate (DGKα and DGKζ assays). The reactions were carried out in 50 mM MOPS pH 7.5, 100 mM NaCl, 10 mM MgCl2, 1 μM CaCl2, and 1 mM DTT (assay buffer). The reactions using a detergent/lipid micelle substrate also contained 50 mM octyl B-D-glucopyranoside. […] The lipid substrate concentrations were […], 0.25 mM DAG, and 2.75 mM PC for the extruded liposome reactions.
(§2) The compound inhibition studies were carried out as follows: 50 nL droplets of each test compound (top concentration 10 mM with 11 point, 3-fold dilution series for each compound) solubilized in DMSO were transferred to wells of a white 1536 well plate (Corning 3725). A 5 mL enzyme/substrate solution at 2× final reaction concentration was prepared by combining 2.5 mL 4× enzyme solution (20 nM DGKα or DGKζ (prepared as described below) in assay buffer) and 2.5 mL of either 4× liposome or 4× detergent/lipid micelle solution (compositions described below) and incubated at room temperature for 10 minutes. Next, 1 μL 2× enzyme/substrate solution was added to wells containing the test compound and reactions were initiated with the addition of 1 μL 300 uM ATP. The reactions were allowed to proceed for 1 hr, after which 2 μL Glo Reagent (Promega V9101) was added and incubated for 40 minutes. Next, 4 μL Kinase Detection Reagent was added and incubated for 30 minutes. Luminescence was recorded using an EnVision microplate reader. […] The compounds were evaluated at 11 concentrations to determine IC50.
(§3) The detergent/lipid micelle was prepared by combining 15 g phosphatidylserine (Avanti 840035P) and 1 g diacylglycerol (800811O) and dissolving into 150 mL chloroform in a 2 L round bottom flask. Chloroform was removed under high vacuum by rotary evaporation. The resulting colorless, tacky oil was resuspended in 400 mL 50 mM MOPS pH 7.5, 100 mM NaCl, 20 mM NaF, 10 mM MgCl2, 1 μM CaCl2), 1 mM DTT, and 200 mM octyl glucoside by vigorous mixing. The lipid/detergent solution was split into 5 mL aliquots and stored at −80° C.
(§4) Human DGK-alpha-TVMV-His-pFBgate and human DCK-zeta-transcript variant-2-TVMV-His-pFBgate baculovirus samples were generated using the Bac-to-Bac baculovirus expression system (Invitrogen) according to the manufacturer's protocol. The DNA used for expression of DGK-alpha and DGK-zeta have SEQ ID NOs: 1 and 3, respectively. Baculovirus amplification was achieved using infected Sf9 cells at 1:1500 virus/cell ratios, and grown for 65 hours at 27° C. post-transfection.
(§5) The expression scale up for each protein was carried out in the Cellbag 50 L WAVE-Bioreactor System 20/50 from GE Healthcare Bioscience. 12 L of 2×10^6 cells/mL Sf9 cells (Expression System, Davis, Calif.) grown in ESF921 insect medium (Expression System) were infected with virus stock at 1:200 virus/cell ratios, and grown for 66-68 hours at 27° C. post-infection. The infected cell culture was harvested by centrifugation at 2000 rpm for 20 min 4° C. in a SORVALL® RC12BP centrifuge. The cell pellets were stored at −70° C. until purification.
(§6) Full length human DGKα and DGKζ, each expressed containing a TVMV-cleavable C-terminal Hexa-His tag sequence (SEQ ID NOs: 2 and 4, respectively) and produced as described above, were purified from Sf) baculovirus-infected insect cell paste. The cells were lysed using nitrogen cavitation method with a nitrogen bomb (Parr Instruments), and the lysates were clarified by centrifugation. […] The three steps column chromatography included nickel affinity resin capture (i.e. HisTrap FF crude, GE Healthcare), followed by size exclusion chromatography (i.e. HiLoad 26/600 Superdex 200 prep grade, GE Healthcare for DGK-alpha, and HiPrep 26/600 Sephacryl S 300_HR, GE Healthcare for DGK-zeta).

[2] = target: human DGKα (Homo sapiens (Human), UniProt P23743); assay: biochemical; settings: detergent/lipid micelle substrate; read-out: DGKα IC50
human DGKα, sequence (P23743 other isoform, or with tags, fused parts or gaps): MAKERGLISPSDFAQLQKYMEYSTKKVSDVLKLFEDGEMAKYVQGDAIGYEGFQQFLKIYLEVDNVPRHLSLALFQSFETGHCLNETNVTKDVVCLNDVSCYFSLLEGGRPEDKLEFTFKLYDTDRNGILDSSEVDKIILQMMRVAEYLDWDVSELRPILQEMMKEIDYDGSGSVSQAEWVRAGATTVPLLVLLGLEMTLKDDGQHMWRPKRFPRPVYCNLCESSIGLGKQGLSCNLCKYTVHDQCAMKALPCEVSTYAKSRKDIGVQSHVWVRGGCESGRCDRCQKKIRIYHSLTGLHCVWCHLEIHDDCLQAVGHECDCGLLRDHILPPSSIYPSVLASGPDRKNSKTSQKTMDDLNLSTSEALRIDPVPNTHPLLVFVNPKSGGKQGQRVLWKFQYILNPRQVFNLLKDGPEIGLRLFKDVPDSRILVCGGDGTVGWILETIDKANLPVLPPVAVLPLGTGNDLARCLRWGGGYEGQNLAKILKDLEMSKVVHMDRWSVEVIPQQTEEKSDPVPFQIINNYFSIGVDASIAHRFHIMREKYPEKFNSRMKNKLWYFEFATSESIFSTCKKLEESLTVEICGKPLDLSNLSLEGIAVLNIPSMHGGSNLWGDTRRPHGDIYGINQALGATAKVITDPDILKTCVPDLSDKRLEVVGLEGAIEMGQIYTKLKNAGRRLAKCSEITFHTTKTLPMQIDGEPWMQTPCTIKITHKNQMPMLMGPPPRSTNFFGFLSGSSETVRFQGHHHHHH
Method: as §1, §2, §3, §4, §5, §6

[3] = system: pre-activated CD4 T cells and Raji cells; assay: Raji CD4 T Cell IL2 Assay; format: cell-based

human DGKζ, sequence (Q13574 other isoform, or with tags, fused parts or gaps): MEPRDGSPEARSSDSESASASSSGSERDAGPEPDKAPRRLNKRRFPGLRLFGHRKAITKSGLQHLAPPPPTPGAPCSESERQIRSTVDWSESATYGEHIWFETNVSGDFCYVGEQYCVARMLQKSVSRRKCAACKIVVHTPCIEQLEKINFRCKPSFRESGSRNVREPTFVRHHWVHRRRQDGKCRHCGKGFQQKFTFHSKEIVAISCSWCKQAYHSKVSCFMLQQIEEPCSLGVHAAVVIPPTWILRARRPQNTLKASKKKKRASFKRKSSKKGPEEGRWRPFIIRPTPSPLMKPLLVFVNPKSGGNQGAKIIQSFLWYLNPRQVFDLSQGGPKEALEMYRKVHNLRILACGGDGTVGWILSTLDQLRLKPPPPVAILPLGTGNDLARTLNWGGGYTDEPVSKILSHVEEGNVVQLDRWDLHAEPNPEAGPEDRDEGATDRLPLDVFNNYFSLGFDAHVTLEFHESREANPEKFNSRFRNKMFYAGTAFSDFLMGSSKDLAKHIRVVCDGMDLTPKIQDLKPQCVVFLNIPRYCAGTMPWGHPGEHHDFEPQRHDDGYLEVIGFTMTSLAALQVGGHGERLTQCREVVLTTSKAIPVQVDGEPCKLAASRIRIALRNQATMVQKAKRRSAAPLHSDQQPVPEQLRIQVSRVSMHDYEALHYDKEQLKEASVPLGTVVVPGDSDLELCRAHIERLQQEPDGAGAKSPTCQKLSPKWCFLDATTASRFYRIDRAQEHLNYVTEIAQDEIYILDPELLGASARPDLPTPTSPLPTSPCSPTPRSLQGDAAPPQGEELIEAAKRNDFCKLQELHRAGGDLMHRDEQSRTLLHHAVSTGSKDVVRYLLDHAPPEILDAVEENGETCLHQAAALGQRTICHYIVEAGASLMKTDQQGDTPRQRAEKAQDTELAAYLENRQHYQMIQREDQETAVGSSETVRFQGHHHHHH

Structure (SMILES)	IC50 [1] [nM]	IC50 [2] [nM]	IC50 [3] [nM]	IC50 ([3]; Homo sapiens, Raji) [nM]
Cn1c(=O)c(C#N)c(N2CCN(CC(O)c3ccc(F)cc3)CC2)c2nc(Br)ccc21 (single isomer, unassigned) [Example 29, 6-bromo-4-{4-[2-(4-fluorophenyl)-2-hydroxyethyl]piperazin-1-yl}-1-methyl-2-oxo-1,2-dihydro-1,5-naphthyridine-3-carbonitrile]	> 240000	570	2300	–
Cc1ccc2c(n1)c(N1CCN(Cc3cc(OC(F)(F)F)ccc3O)CC1)c(C#N)c(=O)n2C [Example 262, 4-(4-{[2-hydroxy-5-(trifluoromethoxy)phenyl]methyl}piperazin-1-yl)-1,6-dimethyl-2-oxo-1,2-dihydro-1,5-naphthyridine-3-carbonitrile]	> 240000	520	–	28
Cn1c(=O)c(C#N)c(N2CCN(Cc3cccc4cn[nH]c34)CC2)c2nc(Br)ccc21 [Example 333, 6-bromo-4-{4-[(1H-indazol-7-yl)methyl]piperazin-1-yl}-1-methyl-2-oxo-1,2-dihydro-1,5-naphthyridine-3-carbonitrile]	230000	5000	–	540
Cn1c(=O)c(C#N)c(N2CCN(Cc3ccc(F)c(F)c3)CC2)c2nc(Cl)ccc21 [Example 319, 6-chloro-4-{4-[(3,4-difluorophenyl)methyl]piperazin-1-yl}-1-methyl-2-oxo-1,2-dihydro-1,5-naphthyridine-3-carbonitrile]	220000	550	–	300
Cn1c(=O)c([N+](=O)[O-])c(N2CCN(C(c3ccc(F)cc3)c3ccc(F)cc3)CC2)c2nc(C#N)ccc21 [Example 40, 8-(4-(bis(4-fluorophenyl)methyl)piperazin-1-yl)-5-methyl-7-nitro-6-oxo-5,6-dihydro-1,5-naphthyridine-2-carbonitrile]	1300	1900	–	37
Cn1c(=O)c(C#N)c(N2CCN(Cc3ccc(C(F)(F)F)c(F)c3)CC2)c2nc(Cl)ccc21 [Example 375, 6-chloro-4-(4-{[3-fluoro-4-(trifluoromethyl)phenyl]methyl}piperazin-1-yl)-1-methyl-2-oxo-1,2-dihydro-1,5-naphthylidine-3-carbonitrile]	> 240000	1600	–	> 100000
Cn1c(=O)c([N+](=O)[O-])c(N2CCN(C(c3ccc(F)cc3)c3ccc(F)cc3)CC2)c2nc(Br)ccc21 [Example 53, 4-(4-(bis(4-fluorophenyl)methyl)piperazin-1-yl)-6-bromo-1-methyl-3-nitro-1,5-naphthyridin-2(1H)-one]	16000	1500	–	43
CC(=O)Nc1ccccc1CN1CCN(c2c(C#N)c(=O)n(C)c3ccc(Br)nc23)CC1 [Example 215, N-(2-((4-(6-bromo-3-cyano-1-methyl-2-oxo-1,2-dihydro-1,5-naphthyridin-4-yl)piperazin-1-yl)methyl)phenyl)acetamide]	> 81000	4100	–	480
Cn1c(=O)c(C#N)c(N2CCN(Cc3ccccc3OC(F)(F)F)CC2)c2nc(Cl)ccc21 [Example 285, 6-chloro-1-methyl-2-oxo-4-(4-{[2-(trifluoromethoxy)phenyl]methyl}piperazin-1-yl)-1,2-dihydro-1,5-naphthyridine-3-carbonitrile]	> 240000	910	–	100
Cn1c(=O)c(C#N)c(N2CCN(Cc3c(O)cccc3Cl)CC2)c2nc(Cl)ccc21 [Example 267, 6-chloro-4-{4-[(2-chloro-6-hydroxyphenyl)methyl]piperazin-1-yl}-1-methyl-2-oxo-1,2-dihydro-1,5-naphthyridine-3-carbonitrile]	> 240000	310	–	48
Cn1c(=O)c(C#N)c(N2CCN(Cc3ccc(Cl)cc3Cl)CC2)c2nc(Cl)ccc21 [Example 310, 6-chloro-4-{4-[(2,4-dichlorophenyl)methyl]piperazin-1-yl}-1-methyl-2-oxo-1,2-dihydro-1,5-naphthyridine-3-carbonitrile]	> 240000	970	–	220
C#CCOc1ccccc1C(c1ccc(F)cc1)N1CCN(c2c(C#N)c(=O)n(C)c3ccc(Br)nc23)CC1 (single isomer, unassigned) [Example 7, 6-bromo-4-{4-[(4-fluorophenyl) [2-(prop-2-yn-1-yloxy)phenyl]methyl]piperazin-1-yl}-1-methyl-2-oxo-1,2-dihydro-1,5-naphthyridine-3-carbonitrile]	120000	500	75	–
COc1cc(F)ccc1C(c1ccc(F)cc1)N1CCN(c2c([N+](=O)[O-])c(=O)n(C)c3ccc(Br)nc23)CC1 (single isomer, unassigned) [Example 57, 6-bromo-4-(4-((4-fluoro-2-methoxyphenyl)(4-fluorophenyl)methyl)piperazin-1-yl)-1-methyl-3-nitro-1,5-naphthyridin-2(1H)-one]	110000	1600	140	–
Cc1ccc(CN2CCN(c3c(C#N)c(=O)n(C)c4ccc(Cl)nc34)CC2)cc1F [Example 289, 6-chloro-4-{4-[(3-fluoro-4-methylphenyl)methyl]piperazin-1-yl}-1-methyl-2-oxo-1,2-dihydro-1,5-naphthyridine-3-carbonitrile]	> 81000	250	–	110
Cn1c(=O)c(C#N)c(N2CCN(Cc3c(O)cccc3F)CC2)c2nc(Br)ccc21 [Example 294, 6-bromo-4-{4-[(2-fluoro-6-hydroxyphenyl)methyl]piperazin-1-yl}-1-methyl-2-oxo-1,2-dihydro-1,5-naphthyridine-3-carbonitrile]	> 240000	110	–	140
Cn1c(=O)c(C#N)c(N2CCN(Cc3cccc4nc[nH]c34)CC2)c2nc(Cl)ccc21 [Example 359, 4-{4-[(1H-1,3-benzodiazol-7-yl)methyl]piperazin-1-yl}-6-chloro-1-methyl-2-oxo-1,2-dihydro-1,5-naphthyridine-3-carbonitrile]	> 240000	19000	–	8000
Cn1c(=O)c(C#N)c(N2CCN(Cc3cc(F)cc(F)c3O)CC2)c2nc(Cl)ccc21 [Example 298, 6-chloro-4-{4-[(3,5-difluoro-2-hydroxyphenyl)methyl]piperazin-1-yl}-1-methyl-2-oxo-1,2-dihydro-1,5-naphthyridine-3-carbonitrile]	27000	830	–	160
Cn1c(=O)c(C#N)c(N2CCN(Cc3cc(Br)ccc3O)CC2)c2nc(Br)ccc21 [Example 282, 6-bromo-4-{4-[(5-bromo-2-hydroxyphenyl)methyl]piperazin-1-yl}-1-methyl-2-oxo-1,2-dihydro-1,5-naphthyridine-3-carbonitrile]	> 240000	220	–	94
COc1cc(F)ccc1C(c1ccc(F)cc1)N1CCN(c2c([N+](=O)[O-])c(=O)n(C)c3ccc(Br)nc23)CC1 (single isomer, unassigned) [Example 58, 6-bromo-4-(4-((4-fluoro-2-methoxyphenyl)(4-fluorophenyl)methyl)piperazin-1-yl)-1-methyl-3-nitro-1,5-naphthyridin-2(1H)-one]	19000	250	28	–
